Data taken from US8551445B2, “Preparation and use of alkylating agents” (The Queen's Medical Center, priority 2003, dated 2013).

Tests used:
[1] = Culture of final purified solutions for microorganism growth (sterility); conditions: 1 mL of final purified solution in physiologic saline; enriched thioglycollate at 37° C. and trypticase soy broth at 23° C.; 2 weeks
Method: The final purified solutions in physiologic saline [^18F]FCH and [^18F]FECh were cultured (1 mL) for microorganisms for growth in enriched thioglycollate at 37° C. and trypticase soy broth media at 23° C. […] A positive control standard is always included in the assay. [^18F]FCH is currently in an FDA approved pre-clinical IND safety trial in humans.

[2] = LAL pyrogen test (Charles River Labs Endosafe); conditions: final purified solutions in physiologic saline
[3] = FDA approved pre-clinical IND safety trial in humans; type: in vivo; conditions: after about fifty trials

SMILES | growth of microorganisms in culture [1] | pyrogens (LAL) [2] | adverse effects [3]
C[N+](C)(C[18F])CCO [[^18F]FCH, [^18F]N,N-Dimethyl-N-fluoromethylethanolamine] | No growth | pyrogen free | no adverse effects
C[N+](C)(CCO)CC[18F] [[^18F]FECh, [^18F]N,N-Dimethyl-N-fluoroethylethanolamine] | No growth | pyrogen free | –
